The supplement of paper PMC5908809

Key:
Assay in all cases: relative IC50 (inflection point of fitted viability curve, relative to fitted max inhibition); higher = less sensitive
Settings in all cases: 72 h
NK-YS (IL-2 2.5 ng/mL) = test system: NK-YS (IL-2 2.5 ng/mL)
Description: (§1)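 Drug sensitivity and resistance testing: 5 concentrations over a 10,000-fold range, 72 h at 37 °C, viability by CellTiter-Glo normalised to DMSO and benzethonium chloride controls. IC50 is the inflection point of a logistic fit (min fixed at 0, max fitted), so it is relative to the fitted maximal inhibition. Kept only where fitted max inhibition is at least 50%.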

DERL-7 (IL-2 2.5 ng/mL) = test system: DERL-7 (IL-2 2.5 ng/mL)
Description: as §1

IMC-1 (IL-2 20 ng/mL) = test system: IMC-1 (IL-2 20 ng/mL)
Description: as §1

YT (IL-2 2.5 ng/mL) = test system: YT (IL-2 2.5 ng/mL)
Description: as §1

NKL (IL-2 2.5 ng/mL) = test system: NKL (IL-2 2.5 ng/mL)
Description: as §1

KAI3 (IL-2 2.5 ng/mL) = test system: KAI3 (IL-2 2.5 ng/mL)
Description: as §1

[1] = test system: normal primary NK cells, pool 1 (3 donors), resting (IL-2 0 ng/mL)
Description: as §1

NK-92 (IL-2 2.5 ng/mL) = test system: NK-92 (IL-2 2.5 ng/mL)
Description: as §1

KHYG-1 (IL-2 2.5 ng/mL) = test system: KHYG-1 (IL-2 2.5 ng/mL)
Description: as §1

SNK-6 (IL-2 2.5 ng/mL) = test system: SNK-6 (IL-2 2.5 ng/mL)
Description: as §1

[2] = test system: normal primary NK cells, pool 1 (3 donors) (IL-2 2.5 ng/mL)
Description: as §1

[3] = test system: normal primary NK cells, pool 2 (3 donors) (IL-2 2.5 ng/mL)
Description: as §1

[4] = test system: normal primary NK cells, pool 3 (3 donors) (IL-2 2.5 ng/mL)
Description: as §1

Row | Structure (SMILES) | relative IC50 (NK-YS (IL-2 2.5 ng/mL)) | relative IC50 (DERL-7 (IL-2 2.5 ng/mL)) | relative IC50 (IMC-1 (IL-2 20 ng/mL)) | relative IC50 (YT (IL-2 2.5 ng/mL)) | relative IC50 (NKL (IL-2 2.5 ng/mL)) | relative IC50 (KAI3 (IL-2 2.5 ng/mL)) | relative IC50 [1] | relative IC50 (NK-92 (IL-2 2.5 ng/mL)) | relative IC50 (KHYG-1 (IL-2 2.5 ng/mL)) | relative IC50 (SNK-6 (IL-2 2.5 ng/mL)) | relative IC50 [2] | relative IC50 [3] | relative IC50 [4]
1 | CC(C)Oc1ccc(C(=O)N[C@H](CNC(=O)CN(C)C)Cc2ccc(-c3cn4cccc([C@H](C)O)c4n3)cc2)cc1Cl | 56.7 nM | 70.3 nM | 261 nM | 48.2 nM | 54.3 nM | 439 nM | 4570 nM | 204 nM | 123 nM | 24.9 nM |  |  | 
2 | Cc1ccc2nc(CN(CCN(Cc3nc4ccc(C)cc4[nH]3)Cc3nc4ccc(C)cc4[nH]3)Cc3nc4ccc(C)cc4[nH]3)[nH]c2c1 | 8980 nM | 8270 nM | 8640 nM | 7070 nM | 2160 nM | 3470 nM | 8020 nM | 3900 nM | 6250 nM | 18200 nM | 7650 nM |  | 
3 | Cn1cc(C2=Nc3cc(NC(=O)C(N)C4CCCCC4)cc4c3C2=CNNC4=O)cn1 (centres undefined) | 442 nM | 1000 nM | 259 nM | 492 nM | 652 nM | 215 nM |  | 505 nM | 134 nM | 238 nM | 3520 nM | 2370 nM | 1960 nM
4 | NCC(=O)Nc1ccc(-n2nc(C(F)(F)F)cc2-c2ccc3c(ccc4ccccc43)c2)cc1 | 1980 nM |  | 4370 nM | 5540 nM | 4070 nM | 4900 nM |  | 4950 nM | 1310 nM | 3810 nM |  | 7200 nM | 7230 nM
5 | O=C(Nc1ccc2[nH]nc(-c3ccncc3)c2c1)[C@@H]1CCN(CC(=O)N2CCN(c3ccc(-c4ncccn4)cc3)CC2)C1 |  | 382 nM | > 10000 nM |  | 516 nM |  | 1670 nM |  | 784 nM |  |  |  | 
6 | COc1cc2c(cc1O)CC[C@@H]1[C@@H]2CC[C@]2(C)[C@@H](O)CC[C@@H]12 [2-methoxyestradiol] | 260 nM | 589 nM | 791 nM | 373 nM | 243 nM | 442 nM |  | 153 nM | 319 nM | 263 nM |  |  | 
7 | COc1cc(Nc2ncc3c(n2)-c2ccc(Cl)cc2C(c2c(F)cccc2OC)=NC3)ccc1C(=O)O [Alisertib] | 22 nM | 28.2 nM | 116 nM | 91.9 nM | 52.5 nM | 116 nM |  | 41.3 nM | 50.5 nM | 39.5 nM |  |  | 
8 | CN(C)c1nc(N(C)C)nc(N(C)C)n1 [Altretamine] |  |  |  | > 10000 nM |  |  |  | > 10000 nM | > 10000 nM |  |  |  | 
